“And” between values parts separate entries of the source, which are not always exact repeats. Equal entries are not always repeated. Where two headings read alike, the source gives them in different places.
Key:
[1] = Reduction of POV in sunflower oil using 2-oxovaleric acid; settings: 250 μL in 25 mL sunflower oil
Protocol: 25 mL of sunflower oil (from an off-the-shelf, opened 1 quart container with approximately 25% atmospheric headspace; storage time unknown) was placed in a 30 mL vial at room temperature. 250 μL of 2-oxovaleric acid was added. The vial was shaken and allowed to stand at ambient temperature in laboratory lighting on the benchtop. No further treatment was done prior to the POV testing.
POV measurements were made on the sunflower oil before and after the 2-oxovaleric acid treatment. The untreated oil was also re-measured periodically for comparison, since opening of the bottle replenishes atmospheric headspace and can cause the POV of the bottle contents to rise. The % reduction was always calculated versus the most recent POV value on the untreated oil, and if multiple measurements were made, an averaged value (shown in parentheses) was used for the calculation.

[2] = POV of model perfume treated with AKG DiDeanol salt; settings: 1.0% w/v
Protocol: (§1) A model perfume was made using 90/10 v/v ethanol/water as a solvent, and a mixture of orange, grapefruit, and bergamot oils as the perfume oil. The mixed citrus oil was loaded into the solvent at approximately 19.4% v/v (6 mL oil into 25 mL solvent). Approximately 200 mg (1.0% w/v) of the AKG DiDeanol salt was dissolved in 20 mL of the mixed citrus perfume, and POV measurements were taken as a function of time after the addition. An untreated perfume sample was handled similarly to the treated perfume and also tested, because the POV can rise rapidly with handling of the sample (opening the bottle, agitation, etc.).

[3] = POV of mixed citrus oil treated with AKG-DiMeC12A salt; settings: 1.0% w/v, within 72 hours (3 days) after addition
Text: In addition to the treatment done in a model perfume as described above, a similar experiment was done in mixed citrus oil. A sample of mixed citrus oil was made by combining lime, orange, grapefruit, lemon, mandarin, tangerine, and bergamot oils, so that a variety of terpene hydroperoxides would be present in the treated mixture being tested. […] An untreated mixed citrus oil sample was handled similarly to the treated oil and also tested, because the POV can rise rapidly with handling of the sample (opening the bottle, agitation, etc.).

[4] = Surface tension of aqueous solution, pendant drop method; assay type: physicochemical; settings: 0.14 weight % solution in water; pure water 71.57 mN/m
Protocol: The measurement was made on a Kruss DSA100S Tensiometer by the pendant drop method. […] This concentration was chosen so the results could be compared to the literature value for known surfactant sodium dodecyl sulfate (SDS) at 5 mM, which is approximately 0.15 weight %.

[5] = Reduction of POV in sunflower oil using AKG-DiMeC12A; settings: for POV of treated oil: 0.3062 g in 15 mL sunflower oil
Text: (§3) The mixture was allowed to stand on the benchtop in ambient laboratory light at room temperature, and POV measurements were taken periodically.

[6] = POV of spiked consumer product: Skin Cream; settings: 1% (w/w); for POV of treated Skin Cream: spiked with oxidized limonene
Protocol: This Example reports the treatment of exemplary consumer product formulations. […] All of the samples had not been fragranced, so the POV was be associated with autooxidized base components. The five consumer product formulations were spiked with an extremely oxidized limonene that was produced in a photoreactor as a source of mixed limonene hydroperoxide isomers (the POV was 1434 mmol/L).
Sample Preparation: 40 mL (Sample #3) or 40 g (Samples #1, 2, 4 & 5) were each spiked with 0.4 mL of oxidized limonene and mixed until homogeneous. Half of each spiked consumer product sample was transferred to a second container, and treated as described in the table below with 0.5-1% (w/w) of a 2-oxocarboxylic acid ammonium salt, then mixed to homogeneity. […]

[7] = Reduction of POV in model perfume using AKG-HEI; settings: 1.0% w/v; 7 days after addition
Protocol: (§2) The mixed citrus oil was loaded into the solvent at approximately 16.7% v/v (40 mL oil into 200 mL solvent, 240 mL total perfume). Approximately 150 mg (1.0% w/v) of the AKG-HEI salt was dissolved in 15 mL of the mixed citrus perfume, and POV measurements were taken as a function of time after the addition. An untreated perfume sample was handled similarly to the treated perfume and also tested, because the POV can rise rapidly with handling of the sample (opening the bottle, agitation, etc.).

[8] = POV of model perfume treated with AKG-mono(DiMeC12A); settings: 1.0% w/v; within 26 hours after the addition
Protocol: as §1, with “AKG-monoMeC12A” for “AKG DiDeanol”

[9] = Reduction of POV in model perfume using PhPA-DiMeC10A; settings: […] w/v; 7 days after addition
Protocol: as §2, with “164” for “150”, “(1.1%” for “(1.0%”, “PhPA-DiMeC10A” for “AKG-HEI”

[10] = Reduction of POV in sunflower oil using DiMeC10A-PhPA; settings: for POV of treated oil: 0.3032 g in 15 mL sunflower oil
Text: as §3

[11] = 0.3358 g in 15 mL sunflower oil; 23 days; indistinguishable from BLANK
[12] = Reduction of POV in model perfume using oxaloacetic acid; settings: 0.83% w/v; 24 hours after treatment
[13] = Reduction of POV in limonene using phenylglyoxylic acid; settings: 200 mg in 20 mL, room temperature
Protocol: 20 mL of autoxidized limonene was placed in a 30 mL glass vial at room temperature, along with a stir bar and an argon gas blanket. 200 mg of phenylglyoxylic acid was added, which dissolved. The vial was shaken once and allowed to stand, while being monitored for POV value as a function of time.

[14] = Reduction of POV in citrus oil using pyruvic acid
Protocol: 50 mL of mixed citrus oils (orange, lemon, lime, mandarin, bergamot, and tangerine) were placed in a 100 round bottom flask at room temperature, along with a stir bar and an argon gas blanket.
A 4:1 v/v isopropanol/pyruvic acid solution was made. 20 mL of this pyruvic acid solution was dripped into the stirred citrus oils at a rate of 0.25 mL/minute via the use of a syringe pump.
When the addition was complete, 10 mL of water and 100 mg of anhydrous sodium carbonate was added to the flask, and the stirring was maintained. When the visible evolution of CO2 had stopped (about 2-4 minutes), the aqueous layer was removed with a pipette and discarded. POV measurements were made on the mixed citrus oil before and after the pyruvic acid treatment.

[15] = Reduction of POV in mixed citrus oil using α-oxo-2-furanacetic acid; settings: for Treated POV: 400 mg in 20 mL mixed citrus oil; for POV reduction: vs untreated oil at same time
Protocol: 20 mL of mixed citrus oil was placed in a 30 mL glass vial at room temperature, along with a stir bar and an argon gas blanket. 400 mg of α-oxo-2-furanacetic acid was added. The vial was shaken once and allowed to stand, while being monitored for POV value as a function of time. […] In this way, the undissolved solid acts as a sink to maintain a steady, low concentration of α-oxo-2-furanacetic acid dissolved in the mixed citrus oil.
In this case, because the time between measurements was relatively long (days instead of minutes), there is the possibility that the untreated mixed citrus oil will oxidize further during the course of the experiment. Therefore, the POV of the treated oil was still compared with the POV of the untreated oil, but the measurement of the untreated oil was re-determined at each time point (rather than just a single, initial value being used).

[16] = Reduction of POV in model perfume using α-ketoglutaric acid; settings: 1.2% w/v; 24 hours after treatment

SMILES: CCCC(=O)C(=O)O [2-oxovaleric acid]
- POV, single measurements ([1]; 23 hours): 4.95 mmol/L and 4.67 mmol/L
- POV, single measurements ([1]; 46 hours): 5.34 mmol/L and 5.10 mmol/L
- POV, single measurements ([1]; 15 days): 2.27 mmol/L and 2.05 mmol/L and 1.99 mmol/L

SMILES: CN(C)CCO.CN(C)CCO.O=C(O)CCC(=O)C(=O)O [AKG DiDeanol]
- POV Treated Perfume ([2]; 60 min): 5.95 mmol/L
- POV Treated Perfume ([2]; 75 min): 5.66 mmol/L
- POV Treated Perfume ([2]; 115 min): 4.96 mmol/L
- POV Treated Perfume ([2]; 195 min): 3.20 mmol/L
- POV Treated Perfume ([2]; 210 min): 3.08 mmol/L
- POV Treated Perfume ([2]; 300 min (5 hours)): 2.31 mmol/L
- POV Treated Perfume ([2]; 370 min): 1.73 mmol/L
- POV Treated Perfume ([2]; 380 min): 1.72 mmol/L
- POV Treated Perfume ([2]; […] (24 hours), indistinguishable from blank): 0.0 indistinguishable from mmol/L

SMILES: CCCCCCCCCCCCN(C)C.CCCCCCCCCCCCN(C)C.O=C(O)CCC(=O)C(=O)O [AKG-DiMeC12A]
- reduction in the POV [3]: 89.0%
- surface tension [4]: 32.08 mN/m
- POV of treated oil ([5]; 50 minutes): 15.36 mmol/L
- POV of treated oil ([5]; 1320 mins (22 hrs)): 12.68 mmol/L
- POV of treated oil ([5]; 23 days): 3.05 mmol/L
- % Reduction in POV ([5]; 50 minutes): 7.2%
- % Reduction in POV ([5]; 1320 mins (22 hrs)): 23.5%
- % Reduction in POV ([5]; 23 days): 83.6%
- % Reduction in POV ([6]; 140 minutes): 56.7%
- % Reduction in POV ([6]; 300 minutes (5 h)): 68.4%
- % Reduction in POV ([6]; 26 hrs): 84.6%
- % Reduction in POV ([6]; 4 days): 90.9%
- % Reduction in POV ([6]; 8 days): 93.0%
- % Reduction in POV ([6]; 15 days): 100.0%
- POV of treated Skin Cream ([6]; 140 minutes): 6.06 mmol/L
- POV of treated Skin Cream ([6]; 300 minutes (5 h)): 4.5 mmol/L
- POV of treated Skin Cream ([6]; 26 hrs): 2.08 mmol/L
- POV of treated Skin Cream ([6]; 4 days): 1.16 mmol/L
- POV of treated Skin Cream ([6]; 8 days): 0.82 mmol/L
- POV of treated Skin Cream ([6]; 15 days): 0 mmol/L

SMILES: O=C(O)CCC(=O)C(=O)O.O=C1NCCN1CCO.O=C1NCCN1CCO [AKG-HEI]
- reduction in POV relative to untreated material [7]: 92.1%

SMILES: CCCCCCCCCCCCN(C)C.O=C(O)CCC(=O)C(=O)O [AKG-mono(DiMeC12A)]
- surface tension [4]: 32.93 mN/m
- reduction in the POV [8]: total and complete reduction

SMILES: CCCCCCCCCCN(C)C.O=C(O)C(=O)Cc1ccccc1 [DiMeC10A-PhPA]
- reduction in POV relative to untreated material [9]: 87.2%
- solubility in sunflower oil ([10]; 0.3032 g in 15 mL): majority of the salt dissolved, but some undissolved solid remained
- POV of treated oil ([10]; 55 minutes): 3.78 mmol/L
- POV of treated oil ([10]; 140 minutes, indistinguishable from BLANK): 0.00 mmol/L
- POV of treated oil ([10]; 1320 mins (22 hrs), indistinguishable from BLANK): 0.00 mmol/L
- POV of treated oil ([10]; 23 days, indistinguishable from BLANK): 0.00 mmol/L
- % Reduction in POV ([10]; 55 minutes): 77.2%
- % Reduction in POV ([10]; 140 minutes): 100%
- % Reduction in POV ([10]; 1320 mins (22 hrs)): 100%
- % Reduction in POV ([10]; 23 days): 100%

SMILES: CCCCCCCCCCN(C)C.O=C(O)C(=O)c1ccco1 [FAA-DiMeC10A]
- POV of treated oil [11]: 0.00 mmol/L

SMILES: O=C(O)CC(=O)C(=O)O [oxaloacetic acid]
- reduction in the POV of the formulated perfume [12]: complete reduction

SMILES: O=C(O)C(=O)c1ccccc1 [phenylglyoxylic acid]
- solubility in autoxidized limonene [13]: dissolved

SMILES: CC(=O)C(=O)O [pyruvic acid]
- POV after treatment ([14]; 50 mL mixed citrus oils, 20 mL 4:1 v/v isopropanol/pyruvic acid at 0.25 mL/minute, POV before treatment 27.261 mEq/L): 4.786 mEq./L
- reduction in POV ([14]; after vs before pyruvic acid treatment): ~82%

SMILES: O=C(O)C(=O)c1ccco1 [α-Oxo-2-furanacetic acid, α-oxo-2-furanacetic acid]
- solubility in mixed citrus oil ([15]; 400 mg in 20 mL): majority of the added α-oxo-2-furanacetic acid did not dissolve
- Treated POV ([15]; 2 days since addition): 18.566 mEq/L
- Treated POV ([15]; 4 days): 17.193 mEq/L
- Treated POV ([15]; 44 days): 1.106 mEq/L
- POV reduction ([15]; 2 days): 26.8%
- POV reduction ([15]; 4 days): 39.8%
- POV reduction ([15]; 44 days): 96.2%

SMILES: O=C(O)CCC(=O)C(=O)O [α-ketoglutaric acid]
- reduction in the POV of the formulated perfume [16]: complete reduction

— patent US10456339B2, “Organic hydroperoxide reduction in perfumery raw materials” (FIRMENICH SA, priority 2017, dated 2019)
